From patent US9951077B2, “Aminopyridazinone compounds as protein kinase inhibitors” (ETERNITY BIOSCIENCE INC., priority 2014, dated 2018)

Target: Btk (Homo sapiens (Human), UniProt Q06187)
Experiment: Btk kinase assay (ADP-Glo)
Format: biochemical
Settings: ATP 1.2 μM, 60 minutes, room temperature; read-out: BTK enzyme IC50
Procedure: The Btk kinase assay was performed using a ADP-Glo Btk kinase assay kit purchased from Promega (Madison, Wis.). The assay was conducted according to the protocols provided in the assay kit. In brief, the enzyme reaction was carried out in the kinase reaction buffer containing Btk (2 ng/μl), ATP (1.2 μM), poly GT peptide (0.3 μM), DTT (40 nM), MnCl2 (1.4 mM), and 1×kinase buffer (included in the kit) in the presence or absence of the tested articles at various concentrations in 384-well plate at room temperature (22±1° C.) for 60 minutes. The final reaction volume for each reaction was 10 μl. Then, 4 μl of ADP-Glo reagent (included in the kit) was added into the reaction and the plate was further incubated for another 40 minutes to terminate the reaction and deplete the remaining ATP. Finally, 10 μl of the kinase detection reagent was added into each reaction to simultaneously convert ADP to ATP and allow the newly synthesized ATP to be measured by a plate-reading luminometer (Victor X5 2030 multilabel reader, PerkinElmer). IC50 value was calculated using appropriate programs in GraphPad Prism by plotting the logarithm of the concentration versus percent inhibition as compared with a vehicle (DMSO) control.

Btk, sequence (Q06187 whole entry): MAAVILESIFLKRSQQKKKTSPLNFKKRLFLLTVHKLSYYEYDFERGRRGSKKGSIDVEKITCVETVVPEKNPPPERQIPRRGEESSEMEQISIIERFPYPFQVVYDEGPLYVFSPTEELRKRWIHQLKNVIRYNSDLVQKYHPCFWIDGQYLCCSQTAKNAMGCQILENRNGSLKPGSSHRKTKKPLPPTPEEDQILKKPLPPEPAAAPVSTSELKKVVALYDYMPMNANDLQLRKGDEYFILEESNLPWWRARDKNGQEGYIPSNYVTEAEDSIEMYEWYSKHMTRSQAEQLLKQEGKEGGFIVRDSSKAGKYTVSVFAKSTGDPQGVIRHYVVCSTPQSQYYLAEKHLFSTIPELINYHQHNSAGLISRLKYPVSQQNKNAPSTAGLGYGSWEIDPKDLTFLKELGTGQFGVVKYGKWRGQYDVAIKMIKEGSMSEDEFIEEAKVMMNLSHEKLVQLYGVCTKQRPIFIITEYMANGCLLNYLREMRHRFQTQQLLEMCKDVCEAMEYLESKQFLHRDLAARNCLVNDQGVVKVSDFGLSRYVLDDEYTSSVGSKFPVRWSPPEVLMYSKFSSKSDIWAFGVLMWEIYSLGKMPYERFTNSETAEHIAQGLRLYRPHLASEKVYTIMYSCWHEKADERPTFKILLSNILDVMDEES

Row | SMILES | IC50 [µM]
1 | CN(C)C/C=C/C(=O)N1CCC[C@@H](n2cc(-c3ccc(Oc4ccccc4)cc3F)c3c(N)n[nH]c(=O)c32)C1 [Example 77, 4-amino-1-[(3R)-1-[(E)-4-(dimethylamino)but-2-enoyl]-3-piperidyl]-3-(2-fluoro-4-phenoxy-phenyl)-6H-pyrrolo[2,3-d]pyridazin-7-one] | ≤ 0.01
2 | C=CC(=O)N1CCC[C@@H](n2cc(-c3ccc(Oc4c(F)cccc4Cl)cc3)c3c(N)n[nH]c(=O)c32)C1 [Example 78, (R)-1-(1-acryloylpiperidin-3-yl)-4-amino-3-(4-(2-chloro-6-fluorophenoxy)phenyl)-1H-pyrrolo[2,3-d]pyridazin-7(6H)-one] | ≤ 0.01
3 | COC/C=C/C(=O)N1CCC[C@@H](n2cc(-c3ccc(Oc4ccccc4)cc3)c3c(N)n[nH]c(=O)c32)C1 [Example 37, 4-amino-1-[(3R)-1-[(E)-4-methoxybut-2-enoyl]-3-piperidyl]-3-(4-phenoxyphenyl)-6H-pyrrolo[2,3-d]pyridazin-7-one] | 1 to 100
4 | N#CCC(=O)N1CCC[C@@H](n2cc(-c3ccc(Oc4ccccc4)cc3)c3c(N)n[nH]c(=O)c32)C1 [Example 24, 3-[(3R)-3-[4-amino-7-oxo-3-(4-phenoxyphenyl)-6H-pyrrolo[2,3-d]pyridazin-1-yl]-1-piperidyl]-3-oxo-propanenitrile] | 0.01 to 1
5 | C=CC(=O)N1CCCC(n2cc(-c3ccc(Oc4cccc(Cl)c4)c(OC)c3)c3c(N)n[nH]c(=O)c32)C1 (stereo not shown) [Example 68, 1-(1-acryloylpiperidin-3-yl)-4-amino-3-(4-(3-chlorophenoxy)-3-methoxyphenyl)-1H-pyrrolo[2,3-d]pyridazin-7(6H)-one] | 0.01 to 1
6 | C=CC(=O)N1CCCC(n2cc(-c3ccc(OC)cc3)c3c(N)n[nH]c(=O)c32)C1 (stereo not shown) [Example 51, 1-(1-acryloylpiperidin-3-yl)-4-amino-3-(4-methoxyphenyl)-1H-pyrrolo[2,3-d]pyridazin-7(6H)-one] | ≤ 0.01
7 | COc1ccc(-c2cn(C3CCCN(C(=O)/C=C/CN(C)C)C3)c3c(=O)[nH]nc(N)c23)cc1Cl (stereo not shown) [Example 54, 4-amino-3-(3-chloro-4-methoxy-phenyl)-1-[1-[(E)-4-(dimethylamino)but-2-enoyl]-3-piperidyl]-6H-pyrrolo[2,3-d]pyridazin-7-one] | ≤ 0.01
8 | CN(C)C/C=C/C(=O)N1CCC[C@@H](n2c(F)c(-c3ccc(Oc4ccccc4)cc3)c3c(N)n[nH]c(=O)c32)C1 [Example 82, 4-amino-1-[(3R)-1-[(E)-4-(dimethylamino)but-2-enoyl]-3-piperidyl]-2-fluoro-3-(4-phenoxyphenyl)-6H-pyrrolo[2,3-d]pyridazin-7-one] | ≤ 0.01
9 | CN(C/C=C/C(=O)N1CCC[C@@H](n2cc(-c3ccc(Oc4ccccc4)cc3)c3c(N)n[nH]c(=O)c32)C1)C1CCC1 [Example 31, 4-amino-1-[(3R)-1-[(E)-4-[cyclobutyl(methyl)amino]but-2-enoyl]-3-piperidyl]-3-(4-phenoxyphenyl)-6H-pyrrolo[2,3-d]pyridazin-7-one] | ≤ 0.01
10 | CN(C)C/C=C/C(=O)N1CCC[C@H]1Cn1cc(-c2ccc(Oc3ccccc3)cc2)c2c(N)n[nH]c(=O)c21 [Example 41, 4-amino-1-[[(2S)-1-[(E)-4-(dimethylamino)but-2-enoyl]pyrrolidin-2-yl]methyl]-3-(4-phenoxyphenyl)-6H-pyrrolo[2,3-d]pyridazin-7-one] | 0.01 to 1
11 | CN(C)C/C=C/C(=O)N1CCC[C@@H](n2cc(-c3ccc(Oc4ccccc4)c(F)c3)c3c(N)n[nH]c(=O)c32)C1 [Example 75, 4-amino-1-[(3R)-1-[(E)-4-(dimethylamino)but-2-enoyl]-3-piperidyl]-3-(3-fluoro-4-phenoxy-phenyl)-6H-pyrrolo[2,3-d]pyridazin-7-one] | ≤ 0.01
12 | Nc1n[nH]c(=O)c2c1c(-c1ccc(Oc3ccccc3)cc1)cn2[C@@H]1CCCN(C(=O)/C=C/CN2CCOCC2)C1 [Example 35, 4-amino-1-[(3R)-1-[(E)-4-morpholinobut-2-enoyl]-3-piperidyl]-3-(4-phenoxyphenyl)-6H-pyrrolo[2,3-d]pyridazin-7-one] | ≤ 0.01
13 | CC#CC(=O)N1CC[C@@H](n2cc(-c3ccc(Oc4ccccc4Cl)cc3)c3c(N)n[nH]c(=O)c32)C1 [Example 96, (R)-4-amino-1-(1-(but-2-ynoyl)pyrrolidin-3-yl)-3-(4-(2-chlorophenoxy)phenyl)-1H-pyrrolo[2,3-d]pyridazin-7(6H)-one] | 0.01 to 1
14 | CN(C)C/C=C/C(=O)N1CC(n2cc(-c3ccc(Oc4ccccc4)cc3)c3c(N)n[nH]c(=O)c32)C1 [Example 40, 4-amino-1-[1-[(E)-4-(dimethylamino)but-2-enoyl]azetidin-3-yl]-3-(4-phenoxyphenyl)-6H-pyrrolo[2,3-d]pyridazin-7-one] | 0.01 to 1
15 | C=CC(=O)N1CCC[C@@H](n2c(Cl)c(-c3ccc(Oc4ccccc4)cc3)c3c(N)n[nH]c(=O)c32)C1 [Example 80, (R)-1-(1-acryloylpiperidin-3-yl)-4-amino-2-chloro-3-(4-phenoxyphenyl)-1H-pyrrolo[2,3-d]pyridazin-7(6H)-one] | 0.01 to 1
16 | C=CC(=O)N1CCC[C@@H](n2cc(-c3ccc(Oc4ccccc4Cl)cc3)c3c(N)n[nH]c(=O)c32)C1 [Example 70, (R)-1-(1-acryloylpiperidin-3-yl)-4-amino-3-(4-(2-chlorophenoxy)phenyl)-1H-pyrrolo[2,3-d]pyridazin-7(6H)-one] | 0.01 to 1
17 | COc1cc(-c2cn([C@@H]3CCCN(C(=O)/C=C/CN(C)C)C3)c3c(=O)[nH]nc(N)c23)ccc1Oc1ccc(Cl)c(Cl)c1 [Example 73, 4-amino-3-[4-(3,4-dichlorophenoxy)-3-methoxy-phenyl]-1-[(3R)-1-[(E)-4-(dimethylamino)but-2-enoyl]-3-piperidyl]-6H-pyrrolo[2,3-d]pyridazin-7-one] | 0.01 to 1
18 | CN(C)C/C=C/C(=O)N1CCCC(n2cc(-c3ccc(Oc4ccc(F)cc4)cc3)c3c(N)n[nH]c(=O)c32)C1 (stereo not shown) [Example 61, 4-amino-1-[1-[(E)-4-(dimethylamino)but-2-enoyl]-3-piperidyl]-3-[4-(4-fluorophenoxy)phenyl]-6H-pyrrolo[2,3-d]pyridazin-7-one] | 0.01 to 1
19 | C=CC(=O)N1CCC(F)C(n2cc(-c3ccc(Oc4ccccc4)cc3)c3c(N)n[nH]c(=O)c32)C1 (stereo not shown) [Example 13, 1-(1-acryloyl-4-fluoropiperidin-3-yl)-4-amino-3-(4-phenoxyphenyl)-1H-pyrrolo[2,3-d]pyridazin-7(6H)-one] | ≤ 0.01
20 | CN(C)C/C=C/C(=O)N1CCC[C@@H](n2cc(-c3ccc(Oc4ccccc4F)cc3)c3c(N)n[nH]c(=O)c32)C1 [Example 57, 4-amino-1-[(3R)-1-[(E)-4-(dimethylamino)but-2-enoyl]-3-piperidyl]-3-[4-(2-fluorophenoxy)phenyl]-6H-pyrrolo[2,3-d]pyridazin-7-one] | ≤ 0.01
21 | CN(C)C/C=C/C(=O)Nc1cccc(-n2cc(-c3ccc(Oc4ccccc4F)cc3)c3c(N)n[nH]c(=O)c32)c1 [Example 92, (E)-N-[3-[4-amino-3-[4-(2-fluorophenoxy)phenyl]-7-oxo-6H-pyrrolo[2,3-d]pyridazin-1-yl]phenyl]-4-(dimethylamino)but-2-enamide] | 0.01 to 1
22 | CC#CC(=O)N1CC[C@H](n2cc(-c3ccc(Oc4ccccc4F)cc3)c3c(N)n[nH]c(=O)c32)C1 [Example 101, (S)-4-amino-1-(1-(but-2-ynoyl)pyrrolidin-3-yl)-3-(4-(2-fluorophenoxy)phenyl)-1H-pyrrolo[2,3-d]pyridazin-7(6H)-one] | 1 to 100
